pEC50, pIC50: −log10 of the molar value. Several values for one entry are separate records, joined by “and”; a condition that tells them apart may be missing. Equal entries are not always repeated. Where two headings read alike, the source gives them in different places.
What was measured:
[1] = target: T1, human estrogen receptor α (Homo sapiens, UniProt P03372); assay: Estrogen Receptor α Flash Plate Assay (binding of radiolabeled estrogen); details: for IC50: flash plate binding, 0.5 nM radiolabeled estrogen, number in brackets = No. of determinations, NA = no detected activity at test concentration, read-out: Estrogen Receptor α in μM (No.)
T1 construct: purchased Panvera
T1 sequence (P03372 1-595): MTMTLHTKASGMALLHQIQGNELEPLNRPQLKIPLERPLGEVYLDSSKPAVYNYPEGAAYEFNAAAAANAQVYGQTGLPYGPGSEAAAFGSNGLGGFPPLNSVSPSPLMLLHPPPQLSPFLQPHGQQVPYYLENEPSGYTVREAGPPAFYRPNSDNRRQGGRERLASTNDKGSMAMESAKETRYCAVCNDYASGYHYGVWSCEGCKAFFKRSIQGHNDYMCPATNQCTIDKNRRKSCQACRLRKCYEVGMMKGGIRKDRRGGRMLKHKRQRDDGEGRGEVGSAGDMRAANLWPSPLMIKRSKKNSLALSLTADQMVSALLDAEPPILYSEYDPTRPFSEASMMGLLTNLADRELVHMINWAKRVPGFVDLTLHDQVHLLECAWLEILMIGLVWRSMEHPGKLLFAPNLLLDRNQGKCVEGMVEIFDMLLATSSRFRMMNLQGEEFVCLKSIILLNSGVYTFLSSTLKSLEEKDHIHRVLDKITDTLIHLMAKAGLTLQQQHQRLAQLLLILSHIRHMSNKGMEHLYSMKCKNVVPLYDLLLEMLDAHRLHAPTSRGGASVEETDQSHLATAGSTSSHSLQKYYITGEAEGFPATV
Method: This assay monitors binding of radiolabeled estrogen to the estrogen receptor. It is performed on a BioMek 2000 (Beckman). Plates are read in a scintillation counter (Packard TopCount), with decreased counts an indication of binding of a compound to the receptor.
The plate was sealed and incubated at 4° C. overnight.
On day two, each well was washed three times with 200 μL PBS, pH 7.2, at room temperature. To each well was then added 98 μL radiolabeled estrogen (0.5 nM, which equals 6 nCi for a 120 Ci/mmol batch, Amersham), diluted in ESB and 5 mM dithiothreitol (DTT). To individual wells were then added 2.5 μL test compound diluted in 30% (v/v) dimethyl sulfoxide/50 mM HEPES, pH 7.5. The wells were mixed three times by aspiration, the plate sealed and incubated at room temperature for one hour. The wells were then counted for 1 min in a TopCount scintillation counter (Packard).

[2] = test system: MCF-7 cells; assay: MCF-7 Cell Proliferation Assay (14C-thymidine, agonist and antagonist mode); type: cell-based; details: number in brackets = number of tests, NA = no detected activity at test concentration; for pEC50: MCF7, agonist mode
Method: This assay was run according to the procedure described by Welshons, et al., (Breast Cancer Res. Treat., 1987, 10(2), 169-75), with minor modification.
Briefly, MCF-7 cells (from Dr. C. Jordan, Northwestern University) were maintained in RPMI 1640 phenol red free medium (Gibco) in 10% FBS (Hyclone), supplemented with bovine insulin and non-essential amino acid (Sigma). The cells were initially treated with 4-hydoxyltamoxifen (10^−8 M) and let stand at 37° C. for 24 hours. Following this incubation with tamoxifen, the cells were treated with compounds at various concentrations.
Compounds to be tested in the agonist mode were added to the culture media at varying concentrations. Compounds to be treated in the antagonist mode were prepared similarly, and 10 nM 17β-estradiol was also added to the culture media. The cells were incubated for 24 hours at 37° C. Following this incubation, 0.1 μCi of ^14C-thymidine (56 mCi/mmol, Amersham) was added to the culture media and the cells were incubated for an additional 24 hours at 37° C. The cells were then washed twice with Hank's buffered salt solution (HBSS) (Gibco) and counted with a scintillation counter. The increase in the ^14C-thymidine in the compound treated cells relative to the vehicle control cells were reported as percent increase in cell proliferation.

[3] = test system: Ishikawa cells; assay: Alkaline Phosphatase Assay in Human Endometrial Ishikawa Cells (agonist and antagonist mode); type: cell-based; details: number in brackets = number of tests, NA = no detected activity at test concentration; for pIC50: antagonist mode with 10 nM 17β-estradiol; for pEC50: agonist mode
Method: This assay was run according to the procedure described by Albert et a., Cancer Res, […], 50(11), 330-6-10, with minor modification.
Ishikawa cells (from ATCC) were maintained in DMEM/F12 (1:1) phenol red free medium (Gibco) supplemented with 10% calf serum (Hyclone). 24 hours prior to testing, the medium was changed to DMEM/F12 (1:1) phenol red free containing 2% calf serum.
Compounds to be tested in the agonist mode were added to the culture media at varying concentrations. Compounds to be treated in the antagonist mode were prepared similarly, and 10 nM 17β-estradiol was also added to the culture media. The cells were then incubated at 37° C. for 3 days. On the fourth day, the media was remove, 1 volume of 1× Dilution Buffer (Clontech) was added to the well followed by addition of 1 volume of Assay Buffer (Clontech). The cells were then incubated at room temperature for 5 minutes. […] The cells were incubated at room temperature for 10 minutes and then quantified on a luminometer. The increase of chemiluminescence over vehicle control was used to calculate the increase in alkaline phosphatase activity.

[4] = antagonist mode with 10 nM 17β-estradiol
[5] = Homo sapiens, MCF7, antagonist mode with 10 nM 17β-estradiol

| SMILES | IC50 [1] | pIC50 [2, 4] | pIC50 [3] | pIC50 ([3]; Homo sapiens) | pIC50 [2, 5] | pEC50 ([2]; Homo sapiens) | pEC50 ([3]; Homo sapiens) | pIC50 [1] |
| --- | --- | --- | --- | --- | --- | --- | --- | --- |
| CN(C)CCOc1ccc(C2Oc3cc(O)ccc3C3=C2c2ccccc2OCC3)cc1 (single isomer, unassigned) [Compound 147] | 0.18 µM | < 5.00 | < 5.00 | – | – | – | – | – |
| CN(C)CCOc1ccc(C2Oc3cc(O)ccc3C3=C2c2ccccc2OCC3)cc1 (single isomer, unassigned) [Compound 149] | 0.015 µM | 5.87 | 5.99 | – | – | – | – | – |
| Oc1ccc2c(c1)OCCC1=C2C(c2ccc(OCCN3CCCCCC3)cc2)Oc2ccccc21 (single isomer, unassigned) [Compound 152] | 0.0086 µM | 5.58 | 6.49 | – | – | – | – | – |
| Oc1ccc2c(c1)OCCC1=C2C(c2ccc(OCCN3CCCCCC3)cc2)Oc2ccccc21 (single isomer, unassigned) [Compound 153] | 0.0066 µM | 5.89 | 6.29 | – | – | – | – | – |
| Oc1ccc2c(c1)OC(c1ccc(OCCN3CCCCCC3)cc1)C1=C2CCOc2ccccc21 (single isomer, unassigned) [Compound 154] | 0.0042 µM | 5.84 | 6.78 | – | – | – | – | – |
| Oc1ccc2c(c1)OC(c1ccc(OCCN3CCCCCC3)cc1)C1=C2CCOc2ccccc21 (single isomer, unassigned) [Compound 155] | 0.088 µM | < 5.00 | 5.42 | – | – | – | – | – |
| CC(C)N(CCOc1ccc(C2Oc3cc(O)ccc3C3=C2c2ccc(O)cc2OCC3)cc1)C(C)C (single isomer, unassigned) [Compound 167] | 0.007 µM | 6.37 | 7.46 | – | – | – | – | – |
| CC(C)N(CCOc1ccc(C2Oc3cc(O)ccc3C3=C2c2ccc(O)cc2OCC3)cc1)C(C)C (single isomer, unassigned) [Compound 168] | 0.0042 µM | 6.66 | 6.54 | – | – | – | – | – |
| c1ccc2c(c1)OC(c1ccc(OCCN3CCCCC3)cc1)C1=C2COc2ccccc21 (single isomer, unassigned) [Compound 170, 5R*-(−)-1-{2-[4-(5,11-Dihydro-chromeno[4,3-c]chromen-5-yl)-phenoxy]-ethyl}-piperidine] | 0.16 µM | ≤ 5.00 | 5.57 | – | – | – | – | – |
| CC(C)(C)C(=O)Oc1ccc2c(c1)OCC1=C2C(c2ccc(OCCN3CCCCC3)cc2)Oc2ccccc21 (single isomer, unassigned) [Compound 171, 2,2-Dimethyl-propionic acid 5S*-(+)-[4-(2-piperidin-1-yl-ethoxy)-phenyl]-5,11-dihydro-chromeno[4,3-c]chromen-2-yl ester] | 0.14 µM | 5.29 | – | 7.25 | – | – | – | – |
| CC(C)(C)C(=O)Oc1ccc2c(c1)OCC1=C2C(c2ccc(OCCN3CCCCC3)cc2)Oc2ccccc21 (single isomer, unassigned) [Compound 172, 2,2-Dimethyl-propionic acid 5R*-(−)-[4-(2-piperidin-1-yl-ethoxy)-phenyl]-5,11-dihydro-chromeno[4,3-c]chromen-2-yl ester] | 0.26 µM | 5.64 | 7.16 | – | – | – | – | – |
| COc1ccc2c(c1)O[C@@H](c1ccc(OCCN3CCCCC3)cc1)C1=C2COc2cc(OC)ccc21 (single isomer, unassigned) [Compound 173, 5S*-(+)-1-{2-[4-(2,8-Dimethoxy-5,11-dihydro-chromeno[4,3-c]chromen-5-yl)-phenoxy]-ethyl}-piperidine] | 0.17 µM | – | – | < 5.00 | < 5.00 | – | – | – |
| COc1ccc2c(c1)OCC1=C2C(c2ccc(OCCN3CCCCC3)cc2)Oc2cc(OC(=O)C(C)(C)C)ccc21 (single isomer, unassigned) [Compound 175] | 0.66 µM | – | – | 6.52 | 5.30 | – | – | – |
| Oc1ccc2c(c1)OCCC1=C2C(c2ccc(OCCN3CCCCCC3)cc2)Oc2cc(F)ccc21 (single isomer, unassigned) [Compound 177] | 0.04 µM | 5.52 | 6.59 | – | – | – | – | – |
| Oc1ccc2c(c1)OCCC1=C2C(c2ccc(OCCN3CCCCCC3)cc2)Oc2cc(F)ccc21 (single isomer, unassigned) [Compound 178] | 0.0064 µM and 0.0076 µM | 5.83 | 6.90 | – | – | – | – | – |
| COc1ccc2c(c1)OCC1=C2[C@H](c2ccc(OCCN3CCCCC3)cc2)Oc2cc(O)ccc21 (single isomer, unassigned) [Compound 181, 8-Methoxy-11S*(−)-[4-(2-piperidin-1-yl-ethoxy)-phenyl]-5,11-dihydro-chromeno[4,3-c]chromen-2-ol] | 0.0011 µM | – | – | 7.47 | 5.87 | – | – | – |
| COc1ccc2c(c1)OCCC1=C2C(c2ccc(OCCN3CCCCC3)cc2)Oc2cc(O)ccc21 (single isomer, unassigned) [Compound 196, 2-Methoxy-5S*-(−)-[4-(2-piperidin-1-yl-ethoxy)-phenyl]-11,12-dihydro-5H-6,13-dioxa-benzo[3,4]cyclohepta[1,2-a]naphthalen-8-ol] | 0.055 µM | < 6.00 | 6.64 | – | – | – | – | – |
| c1ccc2c(c1)O[C@@H](c1ccc(OCCN3CCCCC3)cc1)C1=C2COc2ccccc21 (stereo in doubt) [Compound 169, 5S*-(+)-1-{2-[4-(5,11-Dihydro-chromeno[4,3-c]chromen-5-yl)-phenoxy]-ethyl}-piperidine] | 0.072 µM | ≤ 5.00 | 6.08 | – | – | – | – | – |
| CC(C)(C)C(=O)Oc1ccc2c(c1)OC(c1ccc(OCCN3CCCCC3)cc1)C1=C2COc2cc(OC(=O)C(C)(C)C)ccc21 (stereo not shown) [Compound 22, 2,2-Dimethyl-propionic acid, 8-(2,2-dimethyl-propionyloxy)-5-[4-(2-piperidin-1-yl-ethoxy)-phenyl]-5,11-dihydro-chromeno[4,3-c]chromen-2-yl ester] | 3.45 µM | – | – | 7.27 | 6.18 | < 5.00 | < 5.00 | – |
| CC(C)(C)C(=O)Oc1ccc2c(c1)OC(C)(c1ccc(OCCN3CCCCC3)cc1)C1=C2COc2cc(OC(=O)C(C)(C)C)ccc21 (stereo not shown) [Compound 41, 2,2-Dimethyl-propionic acid 8-(2,2-dimethyl-propionyloxy)-11-methyl-11-[4-(2-piperidin-1-yl-ethoxy)-phenyl]-5,11-dihydro-chromeno[4,3-c]chromen-2-yl ester] | 1.9 µM | – | – | 6.26 | < 5.00 | < 5.00 | < 5.00 | – |
| Oc1ccc2c(c1)OCCC1=C2C(c2ccc(OCCN3CCCCCC3)cc2)Oc2cc(F)ccc21 (stereo not shown) [Compound 174, 5-[4-(2-Azepan-1-yl-ethoxy)-phenyl]-8-fluoro-11,12-dihydro-5H-6,13-dioxa-benzo[3,4]cyclohepta[1,2-a]naphthalen-2-ol] | – | – | – | 6.87 | 5.76 | – | – | 8.82 and 8.89 |

— patent US7105679B2, “Heteroatom containing tetracyclic derivatives as selective estrogen receptor modulators” (priority 2001, dated 2006)
